From PMC4704483 (2015)

Test system: (CUG)100, internal fluorescein-labeled (RNA, repeat) CUGCUGCUGCUGCUGCUGCUGCUGCUGCUGCUGCUGCUGCUGCUGCUGCUGCUGCUGCUGCUGCUGCUGCUGCUGCUGCUGCUGCUGCUGCUGCUGCUGCUGCUGCUGCUGCUGCUGCUGCUGCUGCUGCUGCUGCUGCUGCUGCUGCUGCUGCUGCUGCUGCUGCUGCUGCUGCUGCUGCUGCUGCUGCUGCUGCUGCUGCUGCUGCUGCUGCUGCUGCUGCUGCUGCUGCUGCUGCUGCUGCUGCUGCUGCUGCUGCUGCUGCUGCUGCUGCUGCUGCUGCUGCUGCUGCUGCUGCUG
Assay: fluorescence titration
Details: data not shown

K d [nM]	K d (salt form not stated) [nM]	Structure (SMILES)
< 1000		NC[C@@H]1O[C@H](O[C@H]2[C@@H](O)[C@H](O[C@@H]3[C@@H](O)[C@H](N)C[C@H](N)[C@H]3O[C@H]3O[C@H](CN)[C@@H](O)[C@H](O)[C@H]3N)O[C@@H]2CO)[C@H](N)[C@@H](O)[C@@H]1O
	< 1000	CC[C@H]1OC(=O)[C@H](C)[C@@H](O[C@H]2C[C@@](C)(OC)[C@@H](O)[C@H](C)O2)[C@H](C)[C@@H](O[C@@H]2O[C@H](C)C[C@H](N(C)C)[C@H]2O)[C@](C)(O)C[C@@H](C)C(=O)[C@H](C)[C@@H](O)[C@]1(C)O
